Results: BindingDB's records for doi:10.1021/jm060662k (Abbott Laboratories, 2006)

Target: T1, D(4) dopamine receptor (Homo sapiens, UniProt P21917)
T1 sequence (P21917 whole entry): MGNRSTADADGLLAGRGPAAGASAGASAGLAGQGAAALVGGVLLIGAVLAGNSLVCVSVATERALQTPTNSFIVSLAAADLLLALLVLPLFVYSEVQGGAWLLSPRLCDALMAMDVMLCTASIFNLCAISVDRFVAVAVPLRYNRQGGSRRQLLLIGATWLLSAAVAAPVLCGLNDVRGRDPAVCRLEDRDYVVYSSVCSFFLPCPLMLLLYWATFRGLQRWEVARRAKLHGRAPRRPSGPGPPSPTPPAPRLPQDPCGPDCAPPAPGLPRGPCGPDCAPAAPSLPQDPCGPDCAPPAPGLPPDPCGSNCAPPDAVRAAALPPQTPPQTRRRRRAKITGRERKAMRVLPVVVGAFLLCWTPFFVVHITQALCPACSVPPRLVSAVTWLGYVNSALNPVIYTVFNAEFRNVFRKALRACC
Experiment: Agonist activity at human D4.4 receptor in HEK293 cells coexpressing G-alpha-qo5 by FLIPR

EC50: 12 nM
SMILES: c1ccc(N2CCN(Cc3nc4ccccc4[nH]3)CC2)nc1 [2-((4-(pyridin-2-yl)piperazin-1-yl)methyl)-1H-benzo[d]imidazole]
